Tests used:
[1] = biological target: T1, thalidomide-binding domain of CRBN (CULT) (Homo sapiens, UniProt Q96SW2); test: Photoaffinity labeling binding site mapping with i-pLen probes by LC-MS/MS; settings: equimolar mixture of i-pLen probes, photolysis after 30 min at 24 °C
T1 construct: made in house
Method: (v21.1.1) and Adobe Illustrator (v24.1).
MM.1S, MOLM13, Jurkat, and BxPC3 […]
μg/mL), and 10% (v/v) FBS.
Western Blotting Procedures […]
lysates and the concentration was adjusted using lysis buffer. 5× SDS-PAGE loading buffer […]
Protein samples (8–15 μL per lane) were […]
precast gels for medium molecular weight proteins. Gels were transferred to membranes using […]
for high molecular weight proteins. Membranes were stained with Ponceau S solution to visualize transfer and protein loading.
Degradation assay by flow cytometry […]
resuspension in DMEM +/– without phenol red. For IKZF1 degradation assay, propidium […]
equipped with a high throughput sampler. […]
using the BD FACSDiva software v9.1. For each experimental condition, the arithmetic mean […]
comparing compound treatment to DMSO control.
Structural proteomics mass spectrometry sample preparation […]
addition of a pre-mixed cocktail (final concentrations: 100 μM cleavable biotin picolyl-azide probe, 250 μM THPTA, 250 μM CuSO4, 2.5 mM freshly dissolved sodium ascorbate) and incubated for 1.5 h at 25 °C with inversion. After excess reagent was removed by acetone precipitation, the protein pellet was resuspended in 100 mM TEAB (50 μL, pH=8.5) and 100 mM DTT/PBS (1.5 μL, final concentration 3 mM) was added before incubating for 30 min at 25 °C with inversion. […]
The raw data were analyzed using Proteome Discoverer 2.4.1.15. […]

[2] = biological target: T2, His6-CRBN/DDB1 and GST-BRD4(BD2) (Homo sapiens, UniProt O60885+Q96SW2); test: AlphaScreen ternary complex formation, His6-CRBN/DDB1 and GST-BRD4(BD2); assay type: binding
T2 construct: His6-CRBN/DDB1 complex and GST-BRD4 BD2 domain; purchased Epicypher (GST-BRD4(BD2)); Bristol Myers Squibb gift (His6-CRBN/DDB1) 15-0013
Method: AlphaScreen was performed according to the previously reported method.7 Briefly, for AlphaScreen of His6-CRBN/DDB1, GST-IKZF1 and (S)-, (R)- or rac-lenalidomide-d3, a solution of 100 nM His6-CRBN/DDB1 and 200 nM GST-IKZF1 in 1x AlphaScreen buffer (5 µL) and a solution of the indicated compound in 1x AlphaScreen buffer (5 µL) were added to a each well of a 384-well Optiplate and incubated at 24 °C for 1 h. To each well, a solution of 5 µL of 60 µg/mL AlphaScreen Glutathione Donor beads, 60 µg/mL AlphaLISA Nickel Chelate Donor beads in 1× AlphaScreen buffer was added to each well and incubated at 24 °C for 1 h in the dark and the plate was analyzed. For AlphaScreen of His6-CRBN/DDB1, GST-BRD4(BD2) and bivalent degraders, a solution of 750 nM His-CRBN/DDB1 and 375 nM GST-BRD4(BD2) in 1x AlphaScreen buffer (5 µL) and a solution of the indicated compound in 1x AlphaScreen buffer (5 µL) were added to a each well of a 384-well Optiplate and incubated at 24 °C for 1 h. To each well, a solution of 5 µL of 60 µg/mL AlphaScreen Glutathione Donor beads, 60 µg/mL AlphaLISA Nickel Chelate Donor beads in 1× AlphaScreen buffer was added to each well and incubated at 24 °C for 1 h in the dark and the plate was analyzed. […]
heated at 95 °C for 5 min. 10 µL of the immunoprecipitated sample was load on a 12% Tris-glycine gel and probe-labeling was visualized by fluorescence signal. Separately, 10 µL of the immunoprecipitated sample and the “input” sample were load on a 12% Tris-glycine gel and analyzed by Western blotting. […]
Parental cell lines were stably infected with a unique 24-nucleotide DNA barcode via lentiviral transduction and blasticidin selection. […] Passing barcoded lines were then pooled (20-25 cell lines per pool) based on doubling time and frozen in assay-ready vials.
Test compounds were added to 384-well plates and run at 8 pt. dose with 3-fold dilutions, the highest concentration of 25 µM in triplicate. These assay ready plates were then seeded with […]

His6-CRBN/DDB1 = His6-CRBN/DDB1 (Homo sapiens, UniProt Q96SW2); test: TR-FRET ligand displacement assay (Thal-FITC tracer) with His6-CRBN/DDB1
MOLM13 cells = test: Global quantitative proteomics of protein levels; assay type: cell-based; settings: MOLM13, 100 nM, 4 h
Method: Global Quantitative Proteomics Sample Preparation and Mass Spectrometry Acquisition Global Quantitative Proteomics was performed according to the previously reported method.7 Briefly, 1.0×10^6 MOLM13 cells were seeded in 12-well plates and small molecules of interest were added, and cells were incubated at 37 °C, 5% CO2 for 4 hours. Cells were collected […]
15 sec in total, 11% amplitude) in lysis buffer (5% SDS in 50 mM triethylammonium bicarbonate (TEAB), pH 7.55), and cleared by centrifugation (21,000 × g, 4 °C, 10 min). After protein quantification by BCA protein assay, the lysates were diluted to 1.5 mg/mL with the lysis buffer. The diluted lysates (60 μL) were reduced by addition of dithiothreitol (20 mM) at 24 °C for 30 min then alkylated by addition of iodoacetamide (40 mM) and incubation in the dark at 24 °C for 30 min.

[3] = Protein CRBN, from IC50 with Correction Factor 1.43

T1 sequence (Q96SW2 318-426 limits assumed): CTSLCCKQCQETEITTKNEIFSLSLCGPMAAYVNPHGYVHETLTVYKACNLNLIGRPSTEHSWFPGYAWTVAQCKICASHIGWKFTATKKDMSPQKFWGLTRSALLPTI

C#CCCC1(CC(=O)Nc2ccc3c(c2)C[15N]([C@@H]2CCC(=O)NC2=O)C3=O)N=N1 [(R)-i-pLen]
CRBN residue labeled by the probe [1]: Tyr355

Cc1sc2c(c1C)C(c1ccc(Cl)cc1)=N[C@@H](CC(=O)NCCCCCCCCC(=O)N[C@@H](Cc1ccccc1)C(=O)N[C@@H]1CCC(=O)NC1=O)c1nnc(C)n1-2 [JQ1-FepicQ]
ternary complex formation between His6-CRBN/DDB1 and GST-BRD4(BD2) [2]: minimally promoted the ternary complex
pIC50 (M) (His6-CRBN/DDB1; Protein CRBN, Thalidomide-FITC tracer 50 nM): 6.08 M
IC50 (His6-CRBN/DDB1; Protein CRBN, Thalidomide-FITC tracer 50 nM, protein […]): 840 nM
Kd (His6-CRBN/DDB1; [3]): 589 nM
pKD (M) (His6-CRBN/DDB1; [3]): 6.23 M

[2H]C1([2H])CC([2H])(N2Cc3cc(NC(=O)CCCCCCCCNC(=O)C[C@@H]4N=C(c5ccc(Cl)cc5)c5c(sc(C)c5C)-n5c(C)nnc54)ccc3C2=O)C(=O)NC1=O (mixture of isomers) [JQ1-rac-Len-d3]
FC [fold change abundances (rac/DMSO)] (MOLM13 cells; protein AHCY): 0.9686
logFC (rac vs DMSO) (MOLM13 cells; protein AHCY): 0.2393
FC [fold change abundances (rac/DMSO)] (MOLM13 cells; protein GNB4): -1.362
logFC (rac vs DMSO) (MOLM13 cells; protein GNB4): -0.6098
FC [fold change abundances (rac/DMSO)] (MOLM13 cells; protein NUP88): -1.247
logFC (rac vs DMSO) (MOLM13 cells; protein NUP88): -0.5083
FC [fold change abundances (rac/DMSO)] (MOLM13 cells; protein SATB2): -1.143
logFC (rac vs DMSO) (MOLM13 cells; protein SATB2): -0.4122
FC [fold change abundances (rac/DMSO)] (MOLM13 cells; protein TUBB4B): 1.098
logFC (rac vs DMSO) (MOLM13 cells; protein TUBB4B): 0.3694
ternary complex formation between His6-CRBN/DDB1 and GST-BRD4(BD2) [2]: much less than JQ1-(S)-Len-d3
Kd (His6-CRBN/DDB1; KD, competitive TR-FRET, His6-CRBN/DDB1): < 2 nM

C#CCCC1(CC(=O)Nc2ccc3c(c2)CN([C@H]2CCC(=O)[15NH]C2=O)C3=O)N=N1 [(S)-i-pLen]
CRBN residue labeled by the probe [1]: His353
